Assay [1] addresses T1, FIPV M^pro (Feline coronavirus, UniProt Q98VG9). Nature of the assay: FRET-based cleavage assay with purified FIPV Mpro (Ki and IC50 determination). In kind it is biochemical, FIPV WSU-79/1146. The method, then:
A fluorescence resonance energy transfer (FRET)–based cleavage assay was performed using a synthetic peptide fluorescent substrate containing the cleavage site of FIPV M^pro [Abz-SVTLQ↓SG-Tyr (NO2)-R] as described previously ([Vuong et al., 2020]; [Vuong et al., 2021]). […] The enzymatic reactions using 1–500 μM of FRET substrate in activity buffer (25 mM Bis-Tris, 1 mM DTT, pH 7.0) were started with the addition of protease. For IC50 determination, 100 nM of FIPV M^pro was incubated with an inhibitor concentration range of 0.25 nM–100 µM in activity buffer. The reaction was started with 40 µM of FRET substrate. The fluorescence signal of the FRET peptide cleavage product was monitored at an emission wavelength of 420 nm with excitation at 320 nm, using a Cytation 5 Imaging Multi-Mode Reader (BioTek) for 7 min at 37°C. The kinetic data were analyzed using computer-fit calculation (Prism 9.0, GraphPad Software). […] The experiments were performed in triplicate.

In assay [2] the test system is SARS-CoV-2 M^pro. Particulars: read-out: SARS-CoV-2 M^pro IC50; mean ± SEM, n = 3; ref Vuong et al. (2021); cited from earlier work.
Assay [3] addresses SARS-CoV M^pro. The conditions noted are these: ref Arutyunova et al., 2021; cited from earlier work.
The target of assay [4] is T1, FIPV M^pro. Details: method as in Kim et al., 2012. The conditions noted are these: ref Kim et al., 2012; cited from earlier work.
The test system of assay [5] is FIP virus (FIPV). Set-up: method as in Kim et al., 2016; Pedersen et al., 2018. The conditions noted are these: experimentally induced and naturally occurring FIP; ref Kim et al., 2016; Pedersen et al., 2018; cited from earlier work.
The target of assay [6] is Feline infectious peritonitis virus main protease (FIPV M^pro, FIPV WSU-79/1146) (feline infectious peritonitis virus (FIPV WSU-79/1146)). Nature of the assay: crystal structure; FIPV M^pro at 10 mg/ml incubated with 5x molar excess of GC373 or GC376 (4°C, 2 h), sitting drop, room temperature; GC376: 2.0 M ammonium sulfate, 0.1 M Bis-Tris pH 5.5; GC373: 0.2 M calcium chloride, 0.1 M MES, 20% PEG 6000, pH 6.0.

This is an account of results in paper PMC8907848 (Frontiers in Chemistry, 2022).

Like-named read-outs stand apart in the source and are kept apart here.

In general, IC50 refers to the concentration needed to halve the response being measured. In general, Ki refers to the equilibrium dissociation constant of an inhibitor or competing ligand from its target. Usually stoichiometry N stands for a count of units in the complex or per binding partner.

T1 sequence (Q98VG9 2904-3205): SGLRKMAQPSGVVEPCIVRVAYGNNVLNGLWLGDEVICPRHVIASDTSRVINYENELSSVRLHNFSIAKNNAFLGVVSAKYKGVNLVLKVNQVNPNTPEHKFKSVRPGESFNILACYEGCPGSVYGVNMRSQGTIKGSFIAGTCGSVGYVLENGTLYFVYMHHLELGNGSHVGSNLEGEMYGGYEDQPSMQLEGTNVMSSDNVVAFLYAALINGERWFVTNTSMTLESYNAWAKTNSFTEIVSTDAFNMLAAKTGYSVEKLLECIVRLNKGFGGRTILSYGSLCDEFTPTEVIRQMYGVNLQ

`O=C[C@H](C[C@@H]1CCNC1=O)NC(=O)[C@H](CC1CC1)NC(=O)OCc1ccccc1` [1a] had an IC50 in assay [1] of 0.1 ± 0.07 µM.
In the case of `CC(C)C[C@H](NC(=O)OCc1cccc(F)c1)C(=O)N[C@H](C=O)C[C@@H]1CCNC1=O` [1d], the values for the IC50 in assay [1] and in assay [2] were 0.07 ± 0.01 µM and 0.13 ± 0.04 µM, respectively.
With `CC(C)C[C@H](NC(=O)OCCc1cccc(Cl)c1)C(=O)N[C@H](C=O)C[C@@H]1CCNC1=O` [1e], the figures for the IC50 in assay [1] and in assay [2] were 0.13 ± 0.02 µM and 0.15 ± 0.05 µM, respectively.
With `CC(C)C[C@H](NC(=O)O[C@@H](C)c1ccccc1)C(=O)N[C@H](C=O)C[C@@H]1CCNC1=O` [1g], the IC50 in assay [1] was 0.43 ± 0.09 µM; in assay [2] it was 0.27 ± 0.09 µM.
For `O=C(N[C@@H](CC1CC1)C(=O)N[C@@H](C[C@@H]1CCNC1=O)C(O)S(=O)(=O)O)OCc1cccc(F)c1` (some centres unmarked) [2c], the IC50 in assay [1] was 0.03 ± 0.01 µM; in assay [2], 0.07 ± 0.01 µM.
On to `O=C(N[C@@H](CC1CC1)C(=O)N[C@@H](C[C@@H]1CCNC1=O)C(O)S(=O)(=O)O)OCCc1cccc(Cl)c1` (some centres unmarked) [2d], for which, in assay [1], the IC50 was found to be 0.05 ± 0.02 µM.
Still for that read-out and setting: the result for `COc1cccc2[nH]c(C(=O)N[C@@H](CC3CC3)C(=O)N[C@@H](C[C@@H]3CCNC3=O)C(O)S(=O)(=O)O)cc12` (some centres unmarked) [2e] reads 0.06 ± 0.02 µM.
Consider `CC(C)CC(NC(=O)OCc1ccccc1)C(=O)NC(C=O)CC1CCNC1=O` (centres unmarked) [GC373], for which, in assay [3], the “Ki against SARS-CoV Mpro (in words)” value is given as “nanomolar range”.
Regarding `CC(C)CC(NC(=O)OCc1ccccc1)C(=O)NC(CC1CCNC1=O)C(O)S(=O)(=O)O` (centres unmarked) [GC376, reference compound], the IC50 in assay [1] (100 nM FIPV Mpro, 40 µM FRET substrate, 37°C, mean ± SEM, n = 3, read-out: FIPV M^pro IC50) came to 0.13 ± 0.02 µM. The Ki in assay [1] (read-out: Calculated Ki) was 0.0021 µM. For the same compound, the “IC50 against FIPV Mpro (in words)” value in assay [4] is given as “sub-micromolar”. Also, the “Effect on progression of FIP in cats” value in assay [5] is listed as “successful in reversing the progression”.
As to “Feline infectious peritonitis virus main protease (FIPV M^pro, FIPV WSU-79/1146) (enzyme)”, the stoichiometry N in assay [6] came to 2.
